According to patent US10995087B2, “Crystal form of URAT1 inhibitor, and preparation method therefor” (MEDSHINE DISCOVERY INC., priority 2017, dated 2021):
≈ marks a conversion by molar mass, not a printed value. Read-outs that look alike come from different tables or passages of the source. One block for each compound: values may come before it.

Assays:
[1] = Solubility test of crystal form A in 9 vehicles (HPLC); type: physicochemical; settings: for Solubility (4 hrs) / Solubility (24 hrs) / solubility at 4 h / solubility at 24 h: 37° C.; for Solubility (4 hrs) / solubility at 4 h: stirring 4 hrs; for Solubility (24 hrs) / solubility at 24 h: stirring 24 hrs; for solubility at 4 h / solubility at 24 h: thermodynamic from solid
Protocol: 1. Preparation of diluent and mobile phase
Diluent: 300 mL of pure water and 100 mL of pure acetonitrile were accurately measured, and mixed in a 1 L glass bottle, ultrasonically degassed for 10 minutes for use.
Mobile phase A: 0.1% phosphoric acid aqueous solution
For example: 2.0 mL of phosphoric acid was added into 2000 mL of water, and the mixture was ultrasounded for 10 minutes, mixed evenly, and naturally cooled to room temperature, as mobile phase A.
Mobile phase B: acetonitrile.
2. Preparation of the control solution (using crystal form A per se as the control sample)
5 mg of crystal form A was accurately weighed and placed in a sample bottle, and 10 mL of diluent was added, and the mixture was ultrasounded for 5 minutes, naturally cooled to room temperature, mixed evenly, and labeled as working control solution STD-1.
5 mg of crystal form A was accurately weighed and placed in a sample bottle, and 10 mL of diluent was added, and the mixture was ultrasounded for 5 minutes, naturally cooled to room temperature, mixed evenly, and labeled as working control solution STD-2.
3. Preparation of linear solution
The aforementioned working control solution STD-1 was successively diluted by 1 time, 10 times, 100 times, 1000 times and 2000 times, and was labeled as linear solutions L1, L2, L3, L4 and L5.
6 mg of crystal form A was accurately weighed respectively and added into 8 mL glass bottle, and then 3 mL of different solvents (0.1N hydrochloric acid solution, 0.01N hydrochloric acid solution, purified water, pH 3.8 buffer solution, pH 4.5 buffer solution, pH 5.5 buffer solution, pH 6.0 buffer solution, pH 7.4 buffer solution, pH 6.8 buffer solution) were accurately added to prepare the suspensions. A stirrer was added to the above suspensions, and the suspensions were fully stirred at 37° C. in dark. After stirring, the solids in the pH 7.4 buffer solution and the pH 6.8 buffer solution were completely dissolved, 6 mg of crystal form A were accurately weighed respectively, and added to the buffer solutions, and stirred fully again to prepare suspensions. After stirring for 4 hours and 24 hours, samples were taken and centrifuged. The solutions were filtered with a filter membrane and their concentrations were measured by HPLC.

[2] = Plasma pharmacokinetics in male and female SD rats after single intravenous and intragastric administration; type: in vivo; settings: rat; for clearance: read-out: plasma clearance rate; for Vd: read-out: steady state apparent volume of distribution (Vdss); for bioavailability: PO 4.0 mg/kg vs IV 2.0 mg/kg; for Cmax: read-out: peak concentration (Cmax); for Tmax: read-out: peak time Tmax
Description: Experimental purpose: Plasma pharmacokinetics of male and female SD rats after single intravenous injection and intragastric administration as well as repeated intragastric administration for 8 days for the compound of formula (I).
1. In this experiment, 12 SD rats, half males and half females, were provided by Beijing Vital River Laboratory Animal Technologies Co., Ltd., and were divided into 2 groups according to the similarity of their body weights, each group had 3 females and 3 males. The details of the administration protocol and blood collection protocol were shown in Table 5 and Table 6, respectively.
All animals fasted every other night before the first day of administration and resumed to be fed 4 hours after the administration.
Note: DMSO means dimethyl sulfoxide; HP-β-CD means hydroxypropyl-β-cyclodextrin; MC means methyl cellulose;
IV means intravenous administration; PO means intragastric administration.
Sample Collection and Analysis Methods
0.15 mL of blood samples from experimental animals were collected by jugular vein puncture, and immediately transferred to labeled centrifuge tubes containing K2-EDTA (0.5 M), and the plasma was separated by centrifugation within 30 minutes (centrifugation condition: 3000 g, 4° C., 15 minutes). Plasma concentrations were measured using a validated LC/MS/MS analysis method; plasma concentrations were processed using a non-compartment model of WinNonlin™ Version 6.3 (Pharsight, Mountain View, Calif.) pharmacokinetics software, and the pharmacokinetic parameters were calculated using the linear logarithmic trapezoid method.

[3] = target: T1, uric acid transporter URAT1 (Homo sapiens, UniProt Q96S37); experiment: Uptake cell inhibition experiment: URAT1-mediated 14C-uric acid uptake in HEK293A-URAT1 cells; type: cell-based
T1 construct: expressed in transfected cells; host or cells: HEK293A, stably overexpressing URAT1; the empty vector control is HEK293A-pcDNA3.1
T1 sequence (Q96S37 1-553): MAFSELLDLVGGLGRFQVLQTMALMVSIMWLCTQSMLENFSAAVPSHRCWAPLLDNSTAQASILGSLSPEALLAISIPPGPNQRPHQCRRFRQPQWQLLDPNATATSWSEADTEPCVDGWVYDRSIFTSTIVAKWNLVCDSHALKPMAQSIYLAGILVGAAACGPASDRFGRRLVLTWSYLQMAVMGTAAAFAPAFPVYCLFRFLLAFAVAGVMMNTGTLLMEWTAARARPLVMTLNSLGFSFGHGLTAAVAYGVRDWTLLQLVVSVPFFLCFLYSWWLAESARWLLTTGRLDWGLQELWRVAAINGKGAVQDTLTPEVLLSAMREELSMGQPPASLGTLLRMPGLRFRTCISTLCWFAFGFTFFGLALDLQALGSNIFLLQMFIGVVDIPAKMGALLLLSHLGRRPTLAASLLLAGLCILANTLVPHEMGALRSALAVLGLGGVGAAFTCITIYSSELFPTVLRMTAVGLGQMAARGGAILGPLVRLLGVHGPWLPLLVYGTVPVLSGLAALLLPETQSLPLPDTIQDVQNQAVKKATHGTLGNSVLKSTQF
Protocol: 1) DMSO was used as the solvent of a 200-fold working solution, the storing solution was diluted to a 200-fold working solution at each administration concentration.
2) Hanks balanced salt solution (without Cl^−) was used as the solvent for the 2-fold working solution of transport protein URAT1, and then 200-fold working solution in 1) was diluted by 100 times to obtain a 2-fold working solution at each administration concentration. […]
First, the culture medium in the culture plate was removed, and it was washed once with Hanks buffer salt solution (without Cl^−). […] The cell lysate was taken into a scintillation vial, and 3 mL of Aquasol-2 scintillation liquid was added, and the radioactive intensity in the sample was measured by using Tri-Carb 2910TR liquid scintillation instrument. […]
Three repeats (i.e. n=3) were set for each administration concentration. Mean±standard error (SD) was calculated using statistical formulas in Microsoft® Excel 2010 software.
According to the inhibitory rate (IR) for each transporter at each administration concentration, IC50 value, the effect of the compound on the transport activity of the drug transporter was calculated through Prism5.0 in combination with the Forecast function in Microsoft® Excel 2010 software.

[4] = aqueous buffer, pH 4.5 buffer solution
[5] = aqueous buffer, pH 5.5 buffer solution
[6] = aqueous buffer, pH 6.0 buffer solution
[7] = aqueous buffer, pH 6.8 buffer solution
[8] = aqueous buffer, pH 7.4 buffer solution
[9] = female SD rats, IV single, 2.0 mg/kg
[10] = female SD rats, single intragastric (PO) 4.0 mg/kg
[11] = male SD rats, IV single, 2.0 mg/kg
[12] = male SD rats, single intragastric (PO) 4.0 mg/kg

Solubility (4 hrs) ([1]; 0.01N HCl): <LOQ
Solubility (24 hrs) ([1]; 0.01N HCl): <LOQ
Solubility (4 hrs) ([1]; 0.1N HCl): <LOQ
Solubility (24 hrs) ([1]; 0.1N HCl): <LOQ
solubility at 4 h [1, 4]: 1 µg/mL (≈ 2.09 µM)
solubility at 24 h [1, 4]: 1 µg/mL (≈ 2.09 µM)
solubility at 4 h [1, 5]: 66 µg/mL (≈ 138 µM)
solubility at 24 h [1, 5]: 66 µg/mL (≈ 138 µM)
solubility at 4 h [1, 6]: 214 µg/mL (≈ 447 µM)
solubility at 24 h [1, 6]: 204 µg/mL (≈ 426 µM)
solubility at 4 h [1, 7]: 1960 µg/mL (≈ 4100 µM)
solubility at 24 h [1, 7]: 1840 µg/mL (≈ 3850 µM)
solubility at 4 h [1, 8]: 3820 µg/mL (≈ 7990 µM)
solubility at 24 h [1, 8]: 4050 µg/mL (≈ 8460 µM)
Solubility in high pH buffer (conclusion) ([1]; high pH buffer): good solubility
Solubility (4 hrs) ([1]; pH 3.8 buffer solution): <LOQ
Solubility (24 hrs) ([1]; pH 3.8 buffer solution): <LOQ
solubility at 4 h ([1]; Purified water): 45 µg/mL (≈ 94.1 µM)
solubility at 24 h ([1]; Purified water): 58 µg/mL (≈ 121 µM)
SMILES: CC(C)(Sc1nnc(Br)n1-c1sc(C2CC2)c2c1CCC(F)(F)C2)C(=O)O [crystal form A]

AUC(0-inf) [2, 9]: 5240 ± 544 ng·h/mL
half-life ([2]; female SD rats, IV single, 2.0 mg/kg, read-out: elimination half-life (T1/2) (converted)): 3.04 ± 1.12 h
clearance [2, 9]: 6.41 ± 0.656 mL/min/kg
Vd [2, 9]: 1.55 ± 0.408 L/kg
bioavailability ([2]; female SD rats): 86%
AUC(0-inf) [2, 10]: 9010 ± 4670 ng·h/mL
half-life ([2]; female SD rats, single intragastric (PO) 4.0 mg/kg, read-out: elimination half-life (T1/2) (converted)): 3.48 ± 0.835 h
Cmax [2, 10]: 2110 ± 1350 ng/mL
Tmax [2, 10]: 0.667 ± 0.289 h
AUC(0-inf) [2, 11]: 3530 ± 723 ng·h/mL
half-life ([2]; male SD rats, IV single, 2.0 mg/kg, read-out: T1/2 (converted)): 2.52 ± 0.671 h
clearance [2, 11]: 9.76 ± 2.29 mL/min/kg
Vd [2, 11]: 1.65 ± 0.44 L/kg
bioavailability ([2]; male SD rats): 35.6%
AUC(0-inf) [2, 12]: 2510 ng·h/mL
half-life ([2]; male SD rats, single intragastric (PO) 4.0 mg/kg, read-out: elimination half-life (T1/2) (converted)): 1.72 h
Cmax [2, 12]: 1130 ± 483 ng/mL
Tmax [2, 12]: 0.417 ± 0.144 h
IC50 ([3]; HEK293A-URAT1 cells, 2 min administration, n=3, read-out: IC50, inhibition of uptake of 14C-UA mediated by URAT1): 34 nM
Inhibitory effect on URAT1 relative to reference compound lesinurad ([3]; ratio of IC50 values): about 177 times
SMILES: CC(C)(Sc1nnc(Br)n1-c1sc(C2CC2)c2c1CCC(F)(F)C2)C(=O)O [compound of formula (I)]
